Values of other authors in patent US11154542B2, “Nail lacquer composition containing ciclopirox” (GENUONE SCIENCES INC., priority 2015, dated 2021).

Tested on: fungus
Conditions: laboratory researches

For `CCC(C)(C)c1ccc(CC(C)CN2C[C@@H](C)O[C@@H](C)C2)cc1` (some centres unmarked) [amorolfine, Amorolfine], the antifungal activity is listed as “low antifungal activity” and the “formation of spores that resist antifungal agents” value is listed as “effective in reducing the formation of spores”.
